Test results as given in patent EP4008716A1, “NOVEL INHIBITORS OF INSULIN-LIKE GROWTH FACTOR 2 MRNA BINDING PROTEINS” (Martin-Luther-Universität Halle-Wittenberg, priority 2020, dated 2022).

Test system: ES-2 cells
Assay: Cytotoxicity / cell vitality by cell confluency (IncuCyte live-cell imaging) relative to DMSO controls
Assay type: cell-based
Details: Homo sapiens, ovarian cancer-derived ES-2 cells, 72 h post compound application, eleven concentrations, two-fold dilution from 20µM, mean of three independent studies
Procedure: All novel inhibitors were explored for their cytotoxic activity in ovarian cancer-derived ES-2 cells. In these cell models, BTYNB was prior shown to impair cell vitality and metastatic potential in vitro and cancer mouse models (15). For the respective studies ES-2 cells were plated and exposed to increasing concentration of the compounds and cell vitality was monitored by determining cell confluency relative to DMSO controls using an IncuCyte cell imaging system, essentially as described recently (15). For determining the impact of the developed compounds on ES-2 cell vitality, cells were cultured in Dulbecco's modified eagle medium (DMEM) containing phenol red, 4.5 g/L D-Glucose, 0.11 g/L sodium pyruvate, 10% (v/v) fetal bovine serum (FBS) and 2 mM GlutaMAX (Sigma-Aldrich, Darmstadt, Germany). Cells were maintained in under humidified conditions at 37 °C, 5% CO2. For cytotoxicity studies, cells were seeded in 96-well flat-bottom plates at 2 x 10^3 cells per well in 100 µL supplemented DMEM and incubated for 24 h prior to addition of BTYNB derivatives. Compounds were analyzed at eleven concentrations using a two-fold dilution with an initial compound concentration of 20µM in DMSO (solvent). Cells treated with 0.002% (v/v) DMSO served as controls. Cytotoxicity of compound concentrations was determined 72 h post compound application by monitoring cell confluency using an IncuCyte Systems for Live-Cell Imaging. Cell confluency was determined with the IncuCyte 2019B Rev2 software. Confluency of controls was set to 1 (100%) and altered confluency at distinct compound concentrations was calculated as relative confluency. The mean relative confluency at compound concentrations was analyzed in three independent studies with three technical replicates each. The mean values of three analyses were plotted against the logarithmic concentration of compounds and fitted by the non-linear module [Sigmoidal, 4PL, X is log(concentration)] using GraphPad Prism V9(86) for macOS. In Table 1 compounds with EC50 values, indicating the potency of the 58 developed compounds to impair cell vitality, are listed. […] Table 2: EC-values of the synthesized compounds of formula (I)

| Compound | EC50 [nM] |
| --- | --- |
| NC(=O)c1ccccc1OCc1ccc(Cl)s1 [compound 1, 2-[(5-chlorothiophen-2-yl)methoxy]benzamide] | 5610 |
| Cc1ccc(C(=O)Nc2ccccc2C(N)=O)s1 [compound 2, N-[2-(aminocarbonyl)phenyl]-5-methyl-2-thiophenecarboxamide] | 2060 |
| COc1cc(-c2nc3ccccc3c(=O)[nH]2)ccc1OCc1ccccc1[N+](=O)[O-] [compound 3, 2-{3-Methoxy-4-[(2-nitrobenzyl)oxy]phenyl}-4(3H)-quinazolinone] | 476 |
| O=c1[nH]c(-c2ccc(OCc3ccccc3F)cc2)nc2ccccc12 [compound 4, 2-{4-[(2-Fluorobenzyl)oxy]phenyl}-4(3H)-quinazolinone] | 250 |
| COc1ccc(OCc2cc(-c3nc4sc(Cc5ccccc5)cc4c(=O)[nH]3)ccc2OC)cc1 [compound 5, 6-Benzyl-2-{4-methoxy-3-[(4-methoxyphenoxy)methyl]phenyl}thieno[2,3-d]pyrimidin-4(3H)-one] | 1120 |
| CC(Sc1nnc(NC(=O)c2ccccc2)s1)c1nc2ccccc2c(=O)[nH]1 (stereo not drawn) [compound 6, N-(5-{[1-(4-oxo-3,4-dihydro-2-quinazolinyl)ethyl]thio}-1,3,4-thiadiazol-2-yl)benzamide] | 4050 |
| Cc1cc2c(=O)[nH]c(Cc3ccccc3)nc2s1 [compound 7, 2-Benzyl-6-methylthieno[2,3-d]pyrimidin-4(3H)-one] | 4840 |
| CNC(=O)c1ccccc1NC(=O)c1cc(C)c(C)s1 [compound 8, 4,5-Dimethyl-N-[2-(methylcarbamoyl)phenyl]thiophene-2-carboxamide] | 2830 |
| NC(=O)c1cc(Cl)ccc1OCC(=O)c1ccc(Cl)s1 [compound 9, 5-chloro-2-[2-(5-chlorothiophen-2-yl)-2-oxoethoxy]benzamide] | 1330 |
| NC(=O)c1ccsc1NC(=O)c1cccs1 [compound 10, N-[3-(aminocarbonyl)-2-thienyl]-2-thiophenecarboxamide] | 3230 |
| NC(=O)c1ccccc1NC(=O)C1CCN(C(=O)c2cccs2)CC1 [compound 11, N-[2-(aminocarbonyl)phenyl]-1-(2-thienylcarbonyl)-4-piperidinecarboxamide] | 5180 |
| NC(=O)c1ccccc1NC(=O)c1ccc(Cl)c(Cl)c1 [compound 12, N-[2-(aminocarbonyl)phenyl]-3,4-dichlorobenzamide] | 1880 |
| NC(=O)c1ccccc1NC(=O)c1ccc(Cl)s1 [compound 13, N-(2-carbamoylphenyl)-5-chlorothiophene-2-carboxamide] | 2300 |
| NC(=O)c1ccccc1NC(=O)c1ccccc1 [compound 14, N-(2-carbamoylphenyl)benzamide] | 10500 |
| CCc1cc(C(=O)Nc2sccc2C(N)=O)cs1 [compound 15, 2-{[(5-Ethyl-3-thienyl)carbonyl]amino}-3-thiophenecarboxamide] | 2950 |
| COc1ccc(C(=O)Nc2ccccc2C(N)=O)cc1Cl [compound 16, N-[2-(aminocarbonyl)phenyl]-3-chloro-4-methoxybenzamide] | 5840 |
| NC(=O)c1ccccc1NC(=O)c1cccc(COc2cccc(Cl)c2)c1 [compound 17, 2-({3-[(3-Chlorophenoxy)methyl]benzoyl}amino)benzamide] | 675 |
| NC(=O)c1ccccc1NC(=O)c1cc(Cl)cc(Cl)c1 [compound 18, N-[2-(aminocarbonyl)phenyl]-3,5-dichlorobenzamide] | 5140 |
| NC(=O)c1ccccc1OCC(=O)c1ccc(Br)cc1 [compound 19, 2-[2-(4-Bromophenyl)-2-oxoethoxy]benzamide] | 2950 |
| NC(=O)c1ccccc1NC(=O)CN1CCN(Cc2ccc(Cl)c(Cl)c2)CC1 [compound 20, 2-({[4-(3,4-Dichlorobenzyl)-1-piperazinyl]acetyl}amino)benzamide] | 1220 |

Same assay, conditions: ovarian cancer-derived ES-2 cells, 72 h post compound application, eleven concentrations, two-fold dilution from 20µM, mean of three independent studies

| Compound | EC50 [nM] |
| --- | --- |
| 2-({4-[(2-Bromophenoxy)methyl]benzoyl}amino)-5-isopropyl-3-thiophenecarboxamide [compound 57] | 3740 |
